The values below come from US12161715B2, “EGFR targeted therapy” (priority 2011, dated 2024).

The assay can be described thus: Case 3: conventional drugs approved for neuropathic pain. Type of assay: in vivo, human. As to conditions: failed back surgery syndrome; pregabalin follow-up 19 weeks.

Molecules are shown by their SMILES.

For `NCC1(CC(=O)O)CCCCC1` [gabapentin], the “NP response to conventional drug, Case 3” value was “unsuccessfully treated”. `CC(C)C[C@H](CN)CC(=O)O` [pregabalin]: the “NP response to conventional drug, Case 3” value is “responded”.
